Assays:
[1] = molecular target: T1, Phosphatidylinositol 3-kinase C2 domain-containing subunit gamma (Homo sapiens) (UniProt O75747); conditions: at 10 µM
T1 sequence (whole entry): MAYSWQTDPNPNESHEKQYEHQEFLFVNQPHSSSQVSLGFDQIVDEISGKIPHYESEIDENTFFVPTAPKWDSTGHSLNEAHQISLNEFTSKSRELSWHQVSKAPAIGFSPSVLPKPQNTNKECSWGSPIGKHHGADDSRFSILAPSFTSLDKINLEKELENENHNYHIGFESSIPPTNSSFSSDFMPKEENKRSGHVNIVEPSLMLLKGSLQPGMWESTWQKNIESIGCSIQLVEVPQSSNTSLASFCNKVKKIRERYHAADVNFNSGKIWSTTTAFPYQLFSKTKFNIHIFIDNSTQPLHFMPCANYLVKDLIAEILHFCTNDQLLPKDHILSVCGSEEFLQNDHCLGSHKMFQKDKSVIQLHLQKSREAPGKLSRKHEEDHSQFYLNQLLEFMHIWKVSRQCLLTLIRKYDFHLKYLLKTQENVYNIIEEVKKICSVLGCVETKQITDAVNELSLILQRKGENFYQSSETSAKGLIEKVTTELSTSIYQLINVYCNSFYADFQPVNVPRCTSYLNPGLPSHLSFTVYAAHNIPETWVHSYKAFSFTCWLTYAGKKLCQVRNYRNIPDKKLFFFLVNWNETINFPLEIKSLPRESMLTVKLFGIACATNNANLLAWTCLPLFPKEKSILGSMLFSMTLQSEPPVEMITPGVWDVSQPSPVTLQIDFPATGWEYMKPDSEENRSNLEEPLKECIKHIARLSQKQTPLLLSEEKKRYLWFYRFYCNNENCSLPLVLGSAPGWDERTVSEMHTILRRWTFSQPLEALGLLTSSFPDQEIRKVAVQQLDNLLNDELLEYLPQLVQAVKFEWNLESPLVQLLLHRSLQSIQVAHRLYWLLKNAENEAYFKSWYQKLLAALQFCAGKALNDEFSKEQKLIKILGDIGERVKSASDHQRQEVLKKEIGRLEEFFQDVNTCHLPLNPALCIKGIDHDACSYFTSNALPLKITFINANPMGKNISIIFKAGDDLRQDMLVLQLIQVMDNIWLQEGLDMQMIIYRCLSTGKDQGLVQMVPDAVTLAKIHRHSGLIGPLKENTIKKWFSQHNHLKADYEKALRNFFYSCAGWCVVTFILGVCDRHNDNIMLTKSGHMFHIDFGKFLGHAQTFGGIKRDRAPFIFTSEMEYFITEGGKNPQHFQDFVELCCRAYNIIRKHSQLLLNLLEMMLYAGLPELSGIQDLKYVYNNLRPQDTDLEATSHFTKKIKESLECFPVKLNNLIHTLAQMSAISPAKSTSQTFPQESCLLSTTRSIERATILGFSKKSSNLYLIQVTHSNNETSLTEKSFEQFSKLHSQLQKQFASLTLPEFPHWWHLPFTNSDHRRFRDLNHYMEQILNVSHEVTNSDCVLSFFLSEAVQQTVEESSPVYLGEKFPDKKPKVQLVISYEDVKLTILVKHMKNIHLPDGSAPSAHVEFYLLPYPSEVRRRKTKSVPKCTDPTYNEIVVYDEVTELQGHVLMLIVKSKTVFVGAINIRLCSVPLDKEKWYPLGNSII

[2] = molecular target: T2, Myosin light chain kinase family member 4 (Homo sapiens) (UniProt Q86YV6); assay: Selectivity interaction (KinomeScan (DiscoverX)) EUB0001550a MYLK4; conditions: at 1 µM
T2 sequence (whole entry): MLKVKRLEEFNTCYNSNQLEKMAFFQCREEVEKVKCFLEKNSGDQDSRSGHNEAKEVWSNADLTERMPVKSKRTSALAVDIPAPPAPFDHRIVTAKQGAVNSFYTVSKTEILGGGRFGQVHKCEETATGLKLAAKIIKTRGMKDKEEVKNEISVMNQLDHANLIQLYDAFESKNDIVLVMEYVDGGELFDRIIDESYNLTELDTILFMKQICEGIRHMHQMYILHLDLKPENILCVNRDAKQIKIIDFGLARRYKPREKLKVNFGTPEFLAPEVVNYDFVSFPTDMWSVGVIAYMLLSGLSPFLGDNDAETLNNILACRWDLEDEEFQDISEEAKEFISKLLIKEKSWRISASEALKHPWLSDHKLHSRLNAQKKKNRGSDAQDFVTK

[3] = molecular target: Citron Rho-interacting kinase (Homo sapiens) (UniProt O14578); assay: Selectivity interaction (KinomeScan (DiscoverX)) EUB0000607a CIT; conditions: at 10 µM
Sequence of Citron Rho-interacting kinase (Homo sapiens) (O14578 whole entry): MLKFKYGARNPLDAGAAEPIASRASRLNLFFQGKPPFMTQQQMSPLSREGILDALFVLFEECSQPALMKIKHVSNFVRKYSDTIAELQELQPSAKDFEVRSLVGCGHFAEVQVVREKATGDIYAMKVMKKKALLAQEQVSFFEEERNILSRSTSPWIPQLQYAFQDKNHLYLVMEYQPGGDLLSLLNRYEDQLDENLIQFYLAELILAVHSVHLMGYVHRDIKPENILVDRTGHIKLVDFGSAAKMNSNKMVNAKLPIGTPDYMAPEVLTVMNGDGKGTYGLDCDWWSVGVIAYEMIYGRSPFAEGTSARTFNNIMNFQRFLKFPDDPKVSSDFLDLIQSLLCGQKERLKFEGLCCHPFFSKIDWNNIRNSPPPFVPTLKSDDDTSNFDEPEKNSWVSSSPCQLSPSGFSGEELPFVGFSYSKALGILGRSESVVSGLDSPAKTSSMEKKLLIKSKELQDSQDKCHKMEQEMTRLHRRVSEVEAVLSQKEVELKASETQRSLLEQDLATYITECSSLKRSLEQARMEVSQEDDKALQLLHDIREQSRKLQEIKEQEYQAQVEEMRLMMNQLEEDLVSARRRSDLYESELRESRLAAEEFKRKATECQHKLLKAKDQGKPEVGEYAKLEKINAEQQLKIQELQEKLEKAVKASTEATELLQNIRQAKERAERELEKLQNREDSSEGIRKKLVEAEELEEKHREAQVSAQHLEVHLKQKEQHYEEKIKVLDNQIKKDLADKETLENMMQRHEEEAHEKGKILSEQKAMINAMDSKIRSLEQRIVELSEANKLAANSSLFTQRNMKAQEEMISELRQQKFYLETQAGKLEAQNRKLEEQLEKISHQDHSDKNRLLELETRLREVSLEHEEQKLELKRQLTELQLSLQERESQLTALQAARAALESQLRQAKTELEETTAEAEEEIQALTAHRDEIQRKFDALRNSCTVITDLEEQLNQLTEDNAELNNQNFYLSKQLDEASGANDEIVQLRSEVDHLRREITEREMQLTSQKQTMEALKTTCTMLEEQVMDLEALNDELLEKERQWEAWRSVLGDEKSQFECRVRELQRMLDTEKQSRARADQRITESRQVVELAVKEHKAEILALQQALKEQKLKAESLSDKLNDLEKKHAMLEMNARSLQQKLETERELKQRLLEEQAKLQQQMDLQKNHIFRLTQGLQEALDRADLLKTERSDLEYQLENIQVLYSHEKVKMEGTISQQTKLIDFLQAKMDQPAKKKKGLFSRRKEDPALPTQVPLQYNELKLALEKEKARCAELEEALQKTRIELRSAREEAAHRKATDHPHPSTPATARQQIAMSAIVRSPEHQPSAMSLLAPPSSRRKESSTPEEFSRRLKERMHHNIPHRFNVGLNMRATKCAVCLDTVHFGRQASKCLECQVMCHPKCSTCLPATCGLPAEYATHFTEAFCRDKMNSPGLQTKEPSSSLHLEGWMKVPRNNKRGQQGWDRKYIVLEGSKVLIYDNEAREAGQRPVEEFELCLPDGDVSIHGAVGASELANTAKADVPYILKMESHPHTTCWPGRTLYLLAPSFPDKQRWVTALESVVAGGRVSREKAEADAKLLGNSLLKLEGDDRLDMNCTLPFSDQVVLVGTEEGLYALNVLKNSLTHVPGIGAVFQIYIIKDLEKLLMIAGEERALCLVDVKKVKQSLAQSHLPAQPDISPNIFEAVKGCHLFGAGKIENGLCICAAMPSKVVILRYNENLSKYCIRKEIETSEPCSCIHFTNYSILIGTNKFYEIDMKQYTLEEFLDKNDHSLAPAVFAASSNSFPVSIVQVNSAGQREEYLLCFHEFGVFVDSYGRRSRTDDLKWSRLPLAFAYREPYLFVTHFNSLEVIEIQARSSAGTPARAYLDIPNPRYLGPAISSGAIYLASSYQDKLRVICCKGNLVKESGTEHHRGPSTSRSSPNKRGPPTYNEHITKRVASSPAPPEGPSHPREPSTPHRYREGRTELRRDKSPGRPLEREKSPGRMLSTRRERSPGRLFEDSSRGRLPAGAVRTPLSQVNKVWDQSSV

[4] = molecular target: T3, Serine/threonine-protein kinase tousled-like 1 (Homo sapiens) (UniProt Q9UKI8); assay: Selectivity interaction (KinomeScan (DiscoverX)) EUB0000607a TLK1; conditions: at 10 µM
T3 sequence (whole entry): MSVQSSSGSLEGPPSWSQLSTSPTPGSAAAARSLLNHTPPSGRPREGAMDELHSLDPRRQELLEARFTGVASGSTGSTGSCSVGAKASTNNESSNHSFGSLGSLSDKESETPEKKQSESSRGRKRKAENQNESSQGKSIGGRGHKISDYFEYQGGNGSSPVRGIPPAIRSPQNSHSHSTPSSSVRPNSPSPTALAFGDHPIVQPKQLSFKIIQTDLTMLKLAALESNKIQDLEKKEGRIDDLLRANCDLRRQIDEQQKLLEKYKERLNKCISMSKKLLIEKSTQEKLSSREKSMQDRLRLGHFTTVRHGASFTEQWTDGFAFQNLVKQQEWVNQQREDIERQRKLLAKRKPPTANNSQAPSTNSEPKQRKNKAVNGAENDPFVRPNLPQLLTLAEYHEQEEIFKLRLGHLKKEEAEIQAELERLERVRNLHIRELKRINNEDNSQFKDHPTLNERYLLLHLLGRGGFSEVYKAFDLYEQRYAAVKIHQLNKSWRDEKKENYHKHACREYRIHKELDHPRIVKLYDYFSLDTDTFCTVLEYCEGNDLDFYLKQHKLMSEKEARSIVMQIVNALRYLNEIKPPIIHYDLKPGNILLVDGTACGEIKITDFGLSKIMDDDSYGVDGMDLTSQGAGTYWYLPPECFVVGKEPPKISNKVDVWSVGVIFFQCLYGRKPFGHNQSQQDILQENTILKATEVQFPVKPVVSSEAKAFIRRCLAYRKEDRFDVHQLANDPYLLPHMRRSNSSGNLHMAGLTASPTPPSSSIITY

[5] = molecular target: Beta-2 adrenergic receptor (Homo sapiens, UniProt P07550); assay: Selectivity interaction (Panel of kinases, GPCRs, ion channels and transporters (enzymatic assay)) EUB0000266bCl ADRB2
Sequence of Beta-2 adrenergic receptor (P07550 whole entry, looked up): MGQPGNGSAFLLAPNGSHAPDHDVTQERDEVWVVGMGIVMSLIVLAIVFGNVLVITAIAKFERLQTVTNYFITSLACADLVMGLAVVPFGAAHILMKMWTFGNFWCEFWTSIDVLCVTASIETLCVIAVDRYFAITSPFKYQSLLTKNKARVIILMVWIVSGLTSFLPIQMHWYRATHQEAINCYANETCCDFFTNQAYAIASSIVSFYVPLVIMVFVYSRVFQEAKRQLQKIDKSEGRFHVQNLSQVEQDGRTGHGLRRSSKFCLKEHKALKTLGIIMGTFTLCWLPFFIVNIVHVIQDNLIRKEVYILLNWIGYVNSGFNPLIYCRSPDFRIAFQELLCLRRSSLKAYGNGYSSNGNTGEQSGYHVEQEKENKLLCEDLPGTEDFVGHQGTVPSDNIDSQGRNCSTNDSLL

In the case of `Cc1cc([C@@H](C)Nc2ccccc2C(=O)O)c2nc(N3CCOCC3)cc(=O)n2c1` [AZD-6482], the % of control [1] is reported as 7%.

Compound `CN(C)CC#Cc1ccc2[nH]c3c(c2c1)-c1nc(N)ncc1CCC3` has a % of control [2] of 1.8%.

Compound `CNC(=O)Nc1ccc(-c2nc(N3CC4CCC(C3)O4)c3cnn(C4CCC5(CC4)OCCO5)c3n2)cc1` has a % of control [3] of 100% and a % of control [4] of 86%.

With `CCn1c(-c2nc3cc(C(=O)N4CCCC(N)C4)ccc3n2C)cc2ccccc21` (stereo not given) the pXC50 [5] was < 4.5 M.
